Experimental data taken from PubChem BioAssay AID1963970 (Molecular Pharmacology Branch, DTP, NCI, 2024).

Tested on: 931267-113-T-J1-PDC multicell spheroid viability
Test: Anticancer human tumor 931267-113-T-J1-PDC patient-derived colon adenocarcinoma cell line growth inhibition [PI3K]
Details: for IC50: curve of first compound; for viability, T/C: stronger effect = lower value
Outline: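 High-throughput combination screen: PI3K inhibitors crossed with targeted small molecules on complex spheroids of tumor cells, HUVEC and MSCs at 37 degrees C, 5% CO2. Top concentration was at or near clinical Cmax (otherwise 10 microM), with half-log decrements.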

[1] = second compound 0.00316 µM, first compound 0.000316 µM
[2] = second compound 0.00316 µM, first compound 0.001 µM
[3] = second compound 0.00316 µM, first compound 0.00316 µM
[4] = second compound 0.00316 µM, first compound 0.01 µM
[5] = second compound 0.00316 µM, first compound 0.0316 µM
[6] = second compound 0.00316 µM, first compound 0.1 µM
[7] = second compound 0.01 µM, first compound 0.000316 µM
[8] = second compound 0.01 µM, first compound 0.001 µM
[9] = second compound 0.01 µM, first compound 0.00316 µM
[10] = second compound 0.01 µM, first compound 0.01 µM
[11] = second compound 0.01 µM, first compound 0.0316 µM
[12] = second compound 0.01 µM, first compound 0.1 µM
[13] = second compound 0.0316 µM, first compound 0.000316 µM
[14] = second compound 0.0316 µM, first compound 0.001 µM
[15] = second compound 0.0316 µM, first compound 0.00316 µM
[16] = second compound 0.0316 µM, first compound 0.01 µM
[17] = second compound 0.0316 µM, first compound 0.0316 µM
[18] = second compound 0.0316 µM, first compound 0.1 µM
[19] = second compound 0.1 µM, first compound 0.000316 µM
[20] = second compound 0.1 µM, first compound 0.001 µM
[21] = second compound 0.1 µM, first compound 0.00316 µM
[22] = second compound 0.1 µM, first compound 0.01 µM
[23] = second compound 0.1 µM, first compound 0.0316 µM
[24] = second compound 0.1 µM, first compound 0.1 µM
[25] = second compound 0.316 µM, first compound 0.000316 µM
[26] = second compound 0.316 µM, first compound 0.001 µM
[27] = second compound 0.316 µM, first compound 0.00316 µM
[28] = second compound 0.316 µM, first compound 0.01 µM
[29] = second compound 0.316 µM, first compound 0.0316 µM
[30] = second compound 0.316 µM, first compound 0.1 µM
[31] = second compound 1 µM, first compound 0.000316 µM
[32] = second compound 1 µM, first compound 0.001 µM
[33] = second compound 1 µM, first compound 0.00316 µM
[34] = second compound 1 µM, first compound 0.01 µM
[35] = second compound 1 µM, first compound 0.0316 µM
[36] = second compound 1 µM, first compound 0.1 µM
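Further: viability read 7 days after compound addition.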

CC(=O)c1c(C)c2cnc(Nc3ccc(N4CCNCC4)cn3)nc2n(C2CCCC2)c1=O + COc1c(OCCCN2CCOCC2)ccc2c3n(c(=NC(=O)c4cnc(N)nc4)nc12)CCN3
IC50 (second compound 0.00316 µM): > 100 nM | IC50 (second compound 0.01 µM): > 100 nM | IC50 (second compound 0.0316 µM): > 100 nM | IC50 (second compound 0.1 µM): > 100 nM | IC50 (second compound 0.316 µM): 0.489 nM | IC50 (second compound 1 µM): < 0.316 nM | viability, T/C [1]: 108% | viability, T/C [2]: 102% | viability, T/C [3]: 94.8% | viability, T/C [4]: 99.6% | viability, T/C [5]: 97.3% | viability, T/C [6]: 94.8% | viability, T/C [7]: 105% | viability, T/C [8]: 97.7% | viability, T/C [9]: 92.7% | viability, T/C [10]: 94% | viability, T/C [11]: 98.6% | viability, T/C [12]: 91.5% | viability, T/C [13]: 77.5% | viability, T/C [14]: 84.4% | viability, T/C [15]: 76.2% | viability, T/C [16]: 80.9% | viability, T/C [17]: 82.3% | viability, T/C [18]: 79.4% | viability, T/C [19]: 70.8% | viability, T/C [20]: 65% | viability, T/C [21]: 66.2% | viability, T/C [22]: 64.1% | viability, T/C [23]: 67.7% | viability, T/C [24]: 51.2% | viability, T/C [25]: 51.9% | viability, T/C [26]: 47.2% | viability, T/C [27]: 47.6% | viability, T/C [28]: 43.8% | viability, T/C [29]: 44.5% | viability, T/C [30]: 37.5% | viability, T/C [31]: 35.1% | viability, T/C [32]: 35.9% | viability, T/C [33]: 32.2% | viability, T/C [34]: 31.9% | viability, T/C [35]: 34.3% | viability, T/C [36]: 26.1%

CC(C)n1nc(-c2ccc3oc(N)nc3c2)c2c(N)ncnc21 + COc1c(OCCCN2CCOCC2)ccc2c3n(c(=NC(=O)c4cnc(N)nc4)nc12)CCN3
IC50 (second compound 0.00316 µM): 93.1 nM | IC50 (second compound 0.01 µM): 91.6 nM | IC50 (second compound 0.0316 µM): 68.5 nM | IC50 (second compound 0.1 µM): 31.2 nM | IC50 (second compound 0.316 µM): 1.49 nM | IC50 (second compound 1 µM): < 0.316 nM | viability, T/C [1]: 90.4% | viability, T/C [2]: 97.9% | viability, T/C [3]: 94.1% | viability, T/C [4]: 96% | viability, T/C [5]: 88.6% | viability, T/C [6]: 47.3% | viability, T/C [7]: 96.2% | viability, T/C [8]: 90.2% | viability, T/C [9]: 88.1% | viability, T/C [10]: 82.3% | viability, T/C [11]: 75.4% | viability, T/C [12]: 47.2% | viability, T/C [13]: 90.5% | viability, T/C [14]: 82.1% | viability, T/C [15]: 80.5% | viability, T/C [16]: 72.4% | viability, T/C [17]: 60.3% | viability, T/C [18]: 44.6% | viability, T/C [19]: 76.5% | viability, T/C [20]: 66% | viability, T/C [21]: 64.4% | viability, T/C [22]: 60.9% | viability, T/C [23]: 51.8% | viability, T/C [24]: 34.5% | viability, T/C [25]: 55.5% | viability, T/C [26]: 50.8% | viability, T/C [27]: 46.3% | viability, T/C [28]: 43.1% | viability, T/C [29]: 36% | viability, T/C [30]: 29% | viability, T/C [31]: 37.1% | viability, T/C [32]: 35.8% | viability, T/C [33]: 35.3% | viability, T/C [34]: 32.1% | viability, T/C [35]: 27.5% | viability, T/C [36]: 22.2%

CCCS(=O)(=O)Nc1ccc(F)c(C(=O)c2c[nH]c3ncc(-c4ccc(Cl)cc4)cc23)c1F + COc1c(OCCCN2CCOCC2)ccc2c3n(c(=NC(=O)c4cnc(N)nc4)nc12)CCN3
IC50 (second compound 0.00316 µM): 6300 nM | IC50 (second compound 0.01 µM): 5980 nM | IC50 (second compound 0.0316 µM): 5830 nM | IC50 (second compound 0.1 µM): 4990 nM | IC50 (second compound 0.316 µM): 3660 nM | IC50 (second compound 1 µM): < 31.6 nM | viability, T/C [5]: 111% | viability, T/C [6]: 116% | viability, T/C (second compound 0.00316 µM, first compound 0.316 µM): 104% | viability, T/C (second compound 0.00316 µM, first compound 1 µM): 125% | viability, T/C (second compound 0.00316 µM, first compound 3.16 µM): 127% | viability, T/C (second compound 0.00316 µM, first compound 10 µM): 5.18% | viability, T/C [11]: 102% | viability, T/C [12]: 101% | viability, T/C (second compound 0.01 µM, first compound 0.316 µM): 108% | viability, T/C (second compound 0.01 µM, first compound 1 µM): 109% | viability, T/C (second compound 0.01 µM, first compound 3.16 µM): 110% | viability, T/C (second compound 0.01 µM, first compound 10 µM): 5.04% | viability, T/C [17]: 87.8% | viability, T/C [18]: 92.2% | viability, T/C (second compound 0.0316 µM, first compound 0.316 µM): 93.3% | viability, T/C (second compound 0.0316 µM, first compound 1 µM): 111% | viability, T/C (second compound 0.0316 µM, first compound 3.16 µM): 101% | viability, T/C (second compound 0.0316 µM, first compound 10 µM): 8.61% | viability, T/C [23]: 75.4% | viability, T/C [24]: 68.6% | viability, T/C (second compound 0.1 µM, first compound 0.316 µM): 77.2% | viability, T/C (second compound 0.1 µM, first compound 1 µM): 85.2% | viability, T/C (second compound 0.1 µM, first compound 3.16 µM): 77.6% | viability, T/C (second compound 0.1 µM, first compound 10 µM): 9.09% | viability, T/C [29]: 55.8% | viability, T/C [30]: 51.3% | viability, T/C (second compound 0.316 µM, first compound 0.316 µM): 59.2% | viability, T/C (second compound 0.316 µM, first compound 1 µM): 56.7% | viability, T/C (second compound 0.316 µM, first compound 3.16 µM): 57.2% | viability, T/C (second compound 0.316 µM, first compound 10 µM): 8.55% | viability, T/C [35]: 36.3% | viability, T/C [36]: 39.5% | viability, T/C (second compound 1 µM, first compound 0.316 µM): 36.3% | viability, T/C (second compound 1 µM, first compound 1 µM): 41.4% | viability, T/C (second compound 1 µM, first compound 3.16 µM): 39.7% | viability, T/C (second compound 1 µM, first compound 10 µM): 10.2%
